Data as given in patent US20090325964A1, “Piperazine Metabotropic Glutamate Receptor 5 (MGLUR5) Negative Allosteric Modulators For Anxiety/Depression” (Wyeth, priority 2008, published 2009).
Where two headings read alike, the source gives them in different places. Blank lines part the entries; values can stand above or below the compound they belong to.

Molecular target: T1, rat mGluR5 receptor (Rattus norvegicus, UniProt P31424)
T1 construct: expressed in transfected cells; host or cells: HEK-293
Assay: [3H]-MPEP displacement binding assay, HEK-293 cell membranes expressing rat mGluR5
Conditions: for Ki: read-out: Median Ki; for IC50: no Ki given, read-out: IC50 (printed in the Median Ki column instead of a Ki)
Method: MGluR5 expressing HEK-293 cells were scraped off a plate, transferred to centrifuge tubes and washed twice by centrifugation (2000 rpm for 10 minutes, at 4° C.) in buffer (50 mM Tris pH 7.5). The resulting pellets were aliquoted and stored at minus 80° C. On the day of assay, the cells were thawed on ice and re-suspended in buffer. The binding assay was performed in a 96 well microtiter plate in a total volume of […]. Non-specific binding was determined in the presence of 10 μM MPEP. The binding reaction included a final radioligand [^3H]-MPEP concentration of 4 nM and 12-25 μg membrane protein per well. Following a 60 minute incubation at room temperature, the reaction was terminated by the addition of ice cold buffer and rapid filtration through a GF/B filter that had been presoaked for 30 minutes in 0.5% PEI. Compounds were initially tested in a single point assay to determine percent inhibition at 10 μM.
Percent inhibition and Ki values were generated by GraphPad Prism and Excel Fit. IC50 values were calculated using GraphPad by fitting to a 1 or 2 site-binding model.
where [L] is the concentration of free radioligand and Kd is the dissociation constant of radioligand for the receptor.

[1] = @ 10 μM compound, Biological Activity, Table 2A, read-out: PCT INHIB (%) @ 10 μM
[2] = 1 h, single point, @ 10 μm compound, Table 1A, read-out: PCT INHIB (%) @ 10 μm
[3] = [3H]-MPEP displacement, rat mGluR5
[4] = single point, @ 10 μM compound, Table 3A, read-out: PCT INHIB (%) @ 10 μM

T1 sequence (P31424 21-1203): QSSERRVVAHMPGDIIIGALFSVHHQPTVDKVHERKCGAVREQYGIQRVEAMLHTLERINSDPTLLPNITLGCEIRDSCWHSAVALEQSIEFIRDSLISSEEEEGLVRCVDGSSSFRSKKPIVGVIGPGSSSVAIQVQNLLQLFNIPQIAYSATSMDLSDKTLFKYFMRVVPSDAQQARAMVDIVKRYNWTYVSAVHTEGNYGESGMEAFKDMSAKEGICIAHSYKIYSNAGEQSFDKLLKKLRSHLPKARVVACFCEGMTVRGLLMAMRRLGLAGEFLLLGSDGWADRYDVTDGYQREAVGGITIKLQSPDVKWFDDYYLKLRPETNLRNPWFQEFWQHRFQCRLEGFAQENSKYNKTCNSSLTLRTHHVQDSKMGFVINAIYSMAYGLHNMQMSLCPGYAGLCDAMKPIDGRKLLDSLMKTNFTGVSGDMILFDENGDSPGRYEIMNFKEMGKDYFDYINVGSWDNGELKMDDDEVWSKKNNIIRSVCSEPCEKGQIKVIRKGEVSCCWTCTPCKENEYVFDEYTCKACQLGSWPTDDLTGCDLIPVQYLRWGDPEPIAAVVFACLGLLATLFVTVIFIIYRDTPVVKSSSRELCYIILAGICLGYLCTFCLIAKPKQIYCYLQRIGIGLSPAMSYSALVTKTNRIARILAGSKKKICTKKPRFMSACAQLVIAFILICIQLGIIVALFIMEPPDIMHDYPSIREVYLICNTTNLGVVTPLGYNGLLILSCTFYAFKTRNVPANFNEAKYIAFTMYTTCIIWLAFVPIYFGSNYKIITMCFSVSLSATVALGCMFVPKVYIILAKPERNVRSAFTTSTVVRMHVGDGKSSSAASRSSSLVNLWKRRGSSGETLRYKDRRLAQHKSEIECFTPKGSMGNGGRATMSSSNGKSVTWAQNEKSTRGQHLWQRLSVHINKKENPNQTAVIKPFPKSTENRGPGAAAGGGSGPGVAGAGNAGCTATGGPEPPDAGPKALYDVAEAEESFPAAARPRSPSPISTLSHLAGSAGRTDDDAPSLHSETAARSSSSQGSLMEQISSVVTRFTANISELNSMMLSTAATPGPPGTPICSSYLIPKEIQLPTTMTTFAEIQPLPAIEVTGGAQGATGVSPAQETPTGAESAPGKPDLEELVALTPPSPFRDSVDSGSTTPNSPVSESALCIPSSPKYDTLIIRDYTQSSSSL

Compound: Cc1cccc(N2CCN(C(=O)c3cncc(C#Cc4ccccc4)c3)CC2)n1 [Compound 143, 1-(6-methylpyridin-2-yl)-4-{(5-(phenylethynyl)pyridin-3-yl]carbonyl}piperazine]
inhibition at 10 µM [1]: 49%

Compound: COc1ccc(C(=O)N2CCN(c3cc(C)ccn3)CC2)cc1C#Cc1ccccc1 [Compound 115, 1-[4-methoxy-3-(phenylethynyl)benzoyl]-4-(4-methylpyridin-2-yl]piperazine]
inhibition at 10 µM [1]: 93% | Ki (Biological Activity, Table 2A): 3.15 nM

Compound: COc1cc(C#Cc2cc(C(=O)N3CCN(c4ccccn4)CC3)ccc2OC)cc(OC)c1 [Compound 20, 1-{3-[(3,5-dimethoxyphenyl)ethynyl]-4-methoxybenzoyl}-4-pyridin-2-ylpiperazine]
inhibition at 10 µM [2]: 0%

Compound: COc1cc(C#Cc2cc(C(=O)N3CCN(c4ccccn4)CC3)ccc2C)cc(OC)c1 [Compound 40, 1-{3-[(3,5-dimethoxyphenyl)ethynyl]-4-methylbenzoyl}-4-pyridin-2-ylpiperazine]
inhibition at 10 µM [2]: 0%

Compound: CC1CN(c2ccccn2)CCN1C(=O)c1cccc(C#Cc2ccccn2)c1 (stereo not drawn) [Compound 98, 2-methyl-4-pyridin-2-yl-1-[3-(pyridin-2-ylethynyl)benzoyl]piperazine]
inhibition at 10 µM [1]: 72% | Ki (Biological Activity, Table 2A): 679 nM

Compound: O=C(c1cncc(C#Cc2ccccc2)c1)N1CCN(c2ccc(C(F)(F)F)cn2)CC1 [Compound 132, 1-{[5-(phenylethynyl)pyridin-3-yl]carbonyl}-4-[5-(trifluoromethyl)pyridin-2-yl]piperazine]
inhibition at 10 µM [1]: 0%

Compound: O=C(c1cccc(C#Cc2ccccn2)c1)N1CCN(c2ncc(O)cn2)CC1 [Compound 99, 2-{4-[3-(pyridin-2-ylethynyl)benzoyl]piperazin-1-yl}pyrimidin-5-ol]
inhibition at 10 µM [1]: 64% | Ki (Biological Activity, Table 2A): 1450 nM

Compound: O=C(c1cncc(C#Cc2ccccc2)c1)N1CCN(c2ncccc2C(F)(F)F)CC1 [Compound 134, 1-{[5-(phenylethynyl)pyridin-3-yl]carbonyl}-4-[3-(trifluoromethyl)pyridin-2-yl]piperazine]
inhibition at 10 µM [1]: 0%

Compound: Cc1cc(C#Cc2cc(C(=O)N3CCN(c4ccccn4)CC3)ccc2C)ccc1F [Compound 31, 1-{3-[(4-fluoro-3-methylphenyl)ethynyl]-4-methylbenzoyl}-4-pyridin-2-ylpiperazine]
inhibition at 10 µM [2]: 68% | Ki: 472 nM

Compound: Cc1ccccc1C#Cc1cccc(C(=O)N2CCN(c3ccccn3)CC2)c1 [Compound 4, 1-{3-[(2-methylphenyl)ethynyl]benzoyl}-4-pyridin-2-ylpiperazine]
inhibition at 10 µM [2]: 0%

Compound: 2-{4-[4-methoxy-3-(pyridin-2-ylethynyl)benzoyl]piperazin-1-yl}-1,3-benzothiazole [Compound 256]
Ki [3]: 43 nM

Compound: COc1ccc(C(=O)N2CCN(c3cnccn3)CC2)cc1C#Cc1cccc(C(F)(F)F)c1 [Compound 54, 2-[4-(4-methoxy-3-{[3-(trifluoromethyl)phenyl]ethynyl}benzoyl)piperazin-1-yl]pyrazine]
inhibition at 10 µM [2]: 96% | Ki: 109 nM

Compound: COc1ccc(C(=O)N2CCN(c3cnccn3)CC2)cc1C#CC1=CCCCC1 [Compound 50, 2-{4-[3-(cyclohex-1-en-1-ylethynyl)-4-methoxybenzoyl]piperazin-1-yl}pyrazine]
inhibition at 10 µM [2]: 90% | Ki: 171 nM

Compound: Cc1ccc(C(=O)N2CCN(c3ccccn3)CC2)cc1C#Cc1cccc(O)c1 [Compound 46, 3-({2-methyl-5-[(4-pyridin-2-ylpiperazin-1-yl)carbonyl]phenyl}ethynyl)phenol]
inhibition at 10 µM [2]: 71% | Ki: 1310 nM

Compound: O=C(c1cccc(C#Cc2ccccn2)c1)N1CCN(c2cncc(Cl)n2)CC1 [Compound 104, 2-chloro-6-{4-[3-(pyridin-2-ylethynyl)benzoyl]piperazin-1-yl}pyrazine]
inhibition at 10 µM [1]: 71% | Ki (Biological Activity, Table 2A): 1460 nM

Compound: Cc1cccc(N2CCN(C(=O)c3ccnc(C#Cc4ccccc4)c3)CC2)n1 [Compound 125, 1-(6-methylpyridin-2-yl)-4-[2-(phenylethynyl)isonicotinoyl]piperazine]
inhibition at 10 µM [1]: 30%

Compound: COc1ccc(C(=O)N2CCN(c3cccc(C(F)(F)F)n3)CC2)cc1C#Cc1ccccc1 [Compound 117, 1-[4-methoxy-3-(phenylethynyl)benzoyl]-4-[6-(trifluoromethyl)pyridin-2-yl]piperazine]
inhibition at 10 µM [1]: 35%

Continued, values first:

inhibition at 10 µM [1]: 80% | Ki (Biological Activity, Table 2A): 3020 nM
Compound: Cc1cccc(N2CCN(C(=O)c3cccc(C#Cc4ccccn4)c3)CC2)n1 [Compound 147, 1-(6-methylpyridin-2-yl)-4-[3-(pyridin-2-ylethynyl)benzoyl]piperazine]

Ki [3]: 1840 nM
Compound: O=C(c1ccc(F)c(C#Cc2ccccn2)c1)N1CCN(c2ncc(Cl)cc2Cl)CC1 [Compound 314, 1-(3,5-dichloropyridin-2-yl)-4-[4-fluoro-3-(pyridin-2-ylethynyl)benzoyl]piperazine]

inhibition at 10 µM [4]: 23%
Compound: O=C(c1cccc(OCc2cccc(Br)c2)c1)N1CCN(c2ccccn2)CC1 [Compound 153, 1-{3-[(3-bromobenzyl)oxy]benzoyl}-4-pyridin-2-ylpiperazine]

inhibition at 10 µM (single point, @ 10 μM compound, Table 5, read-out: PCT INHIB (%) @ 10 μM): 0%
Compound: O=S(=O)(c1cccc(C#CCc2ccccc2)c1)N1CCN(c2ccccn2)CC1 [Compound 174, 1-{[3-(3-phenylprop-1-yn-1-yl)phenyl]sulfonyl}-4-pyridin-2-ylpiperazine]

Ki [3]: 122 nM
Compound: COc1ccc(C(=O)N2CCN(c3ccccn3)C(=O)C2)cc1C#Cc1ccccn1 [Compound 330, 4-{[4-methoxy-3-(pyridin-2-ylethynyl)phenyl]carbonyl}-1-pyridin-2-ylpiperazin-2-one]

IC50 [3]: > 10000 nM
Compound: COc1ccc(C(=O)N2CCN(c3ncccc3Cl)CC2)cc1C#Cc1ccc([N+](=O)[O-])cc1 [Compound 350, 1-(3-chloropyridin-2-yl)-4-{4-methoxy-3-[(4-nitrophenyl)ethynyl]benzoyl}piperazine]

IC50 [3]: > 10000 nM
Compound: COc1ccc(C(=O)N2CCN(c3ncccc3Cl)CC2)cc1C#Cc1ccc(C(F)(F)F)cc1 [Compound 349, 1-(3-chloropyridin-2-yl)-4-(4-methoxy-3-{[4-(trifluoromethyl)phenyl]ethynyl}benzoyl)piperazine]

Ki [3]: 851 nM
Compound: COc1ccc(C(=O)N2CCCN(c3ccc(C(F)(F)F)cn3)CC2)cc1C#Cc1ccccn1 [Compound 210, 1-[4-methoxy-3-(pyridin-2-ylethynyl)benzoyl]-4-[5-(trifluoromethyl)pyridin-2-yl]-1,4-diazepane]

Ki [3]: 951 nM
Compound: COc1ccc(C(=O)N2CCN(c3cc4ccc(Cl)cc4cn3)CC2)cc1C#Cc1ccccn1 [Compound 260, 7-chloro-3-{4-[4-methoxy-3-(pyridin-2-ylethynyl)benzoyl]piperazin-1-yl}isoquinoline]

Ki ([3H]-MPEP displacement, rat mGluR5 membranes): 2920 nM
Compound: O=C(c1ccc(C(F)(F)F)c(C#Cc2ccccn2)c1)N1CCN(c2ncc(Cl)cc2Cl)CC1 [Compound 368, 1-(3,5-dichloropyridin-2-yl)-4-{[3-(pyridin-2-ylethynyl)-4-(trifluoromethyl)phenyl]carbonyl}piperazine]

Ki [3]: 3190 nM
Compound: COc1ccc(C(=O)N2CCN(c3ncccc3Cl)CC2)cc1C#Cc1ccc(Cl)cc1 [Compound 352, 1-{3-[(4-chlorophenyl)ethynyl]-4-methoxybenzoyl}-4-(3-chloropyridin-2-yl)piperazine]

Ki [3]: 1540 nM
Compound: COc1ccc(C(=O)N2CCN(S(=O)(=O)c3c(C)noc3C)CC2)cc1C#Cc1ccccn1 [Compound 270, 1-[(3,5-dimethylisoxazol-4-yl)sulfonyl]-4-[4-methoxy-3-(pyridin-2-ylethynyl)benzoyl]piperazine]

inhibition at 10 µM [4]: 36%
Compound: O=C(c1cccc(OCc2cccc(Cl)c2)c1)N1CCN(c2ccccn2)CC1 [Compound 154, 1-{3-[(3-chlorobenzyl)oxy]benzoyl}-4-pyridin-2-ylpiperazine]

IC50 [3]: > 10000 nM
Compound: COc1ccc(C(=O)N2CCN(c3nc4ccc([N+](=O)[O-])cc4s3)CC2)cc1C#Cc1ccccn1 [Compound 282, 2-{4-[4-methoxy-3-(pyridin-2-ylethynyl)benzoyl]piperazin-1-yl}-6-nitro-1,3-benzothiazole]

Ki [3]: 4500 nM
Compound: COc1ccc(C(=O)N2CCN(c3ncccn3)CC2)cc1C#Cc1ccccc1Cl [Compound 360, 2-(4-{3-[(2-chlorophenyl)ethynyl]-4-methoxybenzoyl}piperazin-1-yl)pyrimidine]

inhibition at 10 µM [1]: 74% | Ki (Biological Activity, Table 2A): 1630 nM
Compound: N#Cc1cccnc1N1CCN(C(=O)c2cccc(C#Cc3ccccn3)c2)CC1 [Compound 148]

Ki [3]: 1040 nM
Compound: COc1ccc(C(=O)N2CCCN(c3ccc(C#N)cn3)CC2)cc1C#Cc1ccccn1 [Compound 202, 6-{4-[4-methoxy-3-(pyridin-2-ylethynyl)benzoyl]-1,4-diazepan-1-yl}nicotinonitrile]

inhibition at 10 µM [4]: 11%
Compound: COc1ccc(C(=O)N2CCN(c3ccccn3)CC2)cc1OCc1cccc(F)c1 [Compound 163, 1-{3-[(3-fluorobenzyl)oxy]-4-methoxybenzoyl}-4-pyridin-2-ylpiperazine]
